Data as given in patent US10875834B2, “Prodrug and protected forms of 5-hydroxymethylfurfuranal (5-HMF) and its derivatives” (VIRGINIA COMMONWEALTH UNIVERSITY, priority 2016, dated 2020).
Where “and” joins values, the source holds several entries; their conditions need not be identical. Equal entries are not always repeated. Entries after “also recorded” stand apart in the source; their conditions may differ. Where two headings read alike, the source gives them in different places.

How the values were obtained:
sickle Hb (Hb S) = target: T1, sickle Hb (Hb S) (Homo sapiens, UniProt P69905); assay: Hb adduct formation study (Hb S modification) with SS cells, cation-exchange HPLC; assay type: cell-based; settings: for Modified Hb (%): 2 mM test compound, SS cells suspensions (20% hematocrit), mean ± SD, three experiments; for Hb modification relative to 5-HMF: 1, 2 and 5 mM
T1 construct: from tissue; host or cells: blood (red cells) of a subject with homozygous sickle cell disease; hemolysate analysed
T1 sequence (P69905 2-142 limits assumed): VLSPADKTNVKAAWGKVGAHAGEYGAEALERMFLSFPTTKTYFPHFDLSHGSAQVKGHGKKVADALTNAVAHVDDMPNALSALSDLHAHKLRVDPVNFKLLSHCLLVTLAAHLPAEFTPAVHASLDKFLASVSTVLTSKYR
Text: (§1) The twelve compounds, VZHE004, VZHE006, VZHE007, VZHE005, VZHE011, VZHE013, VZHE014, VZHE015, VZHE016, 5-PMFC, 5-CMFC, 5-NMFC, and the parent compound (positive control) 5-HMF were investigated for their abilities to prevent hypoxia-induced RBC sickling (RBC morphology study), increase sickle Hb oxygen affinity (oxygen equilibrium curve; OEC study), and modify sickle Hb (adduct formation study) as previously published (Abdulmalik et al., Br. J Haematol., 2005, 128, 552; Safo et al, J. Med. Chem, 2004, 47, 4665). Briefly, blood suspensions from a subject with homozygous SCD (hematocrit: 20%) were incubated under air in the absence or presence of 1, 2 and 5 mM concentration of test compounds at 37° C. for 1 hr to ensure that binding had attained equilibrium. Following, the suspensions were incubated under hypoxic condition (4% oxygen/96% nitrogen) at 37° C. for 2 hr. Aliquot samples were fixed with 2% glutaraldehyde solution without exposure to air, and then subjected to microscopic morphological analysis. The residual samples were washed in phosphate-buffered saline, and hemolyzed in hypotonic lysis buffer for subsequent analyses.
(§2) For the OEC study, approximately 100 μl aliquot samples from clarified lysate obtained from the antisickling study were added to 4 ml of 0.1M potassium phosphate buffer, pH 7.0, in a cuvette and subjected to hemoximetry analysis using Hemox™ Analyzer (TCS Scientific Corp.) to assess P50 shifts. Finally, for the Hb adduct formation study, clarified lysates, also from the above antisickling study, were subjected to cation-exchange HPLC (Hitachi D-7000 Series, Hitachi Instruments, Inc., San Jose, Calif.), using a weak cation-exchange column (Poly CAT A: 30 mm×4.6 mm, Poly LC, Inc., Columbia, Md.).

[1] = target: T2, sickle Hb oxygen affinity (Homo sapiens, UniProt P69905); assay: Oxygen equilibrium curve (OEC) study, P50 shift of hemolysate from SS cells; assay type: cell-based; settings: for AP50 (%): 2 mM test compound, hemolysate of SS cells, mean ± SD, three experiments; for P50 shift relative to 5-HMF: 1, 2 and 5 mM
T2 construct: from tissue; host or cells: blood (red cells) of a subject with homozygous sickle cell disease; hemolysate analysed
T2 sequence (P69905 2-142 limits assumed): as above
Text: as §1, §2

[2] = test system: homozygous sickle red blood cells (SS cells); assay: Antisickling (RBC morphology) study under hypoxia; assay type: cell-based, human
Text: as §1

Hb A = target: T3, Hb A (Homo sapiens, UniProt P69905); assay: Time-dependent adduct formation study in normal whole blood; assay type: in vitro ADME; settings: 2 mM, up to 24 hr
T3 construct: time-dependent studies on Hb adduct formation using normal whole blood; from tissue; host or cells: normal human whole blood (30% hct)
T3 sequence (P69905 2-142 limits assumed): as above
T3 sequence (P68871 2-147 partner limits assumed): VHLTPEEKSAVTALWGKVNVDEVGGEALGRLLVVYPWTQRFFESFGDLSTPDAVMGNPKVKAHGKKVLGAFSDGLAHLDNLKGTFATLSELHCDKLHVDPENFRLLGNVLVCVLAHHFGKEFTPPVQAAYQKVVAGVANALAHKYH
Method: The compounds, VZHE004, VZHE006, VZHE007, VZHE005, VZHE011, VZHE013, VZHE014, VZHE015, VZHE016, 5-PMFC, 5-NMFC, and the control 5-HMF were used to conduct time-dependent studies on Hb adduct formation using normal whole blood. The study was performed in a 96-well deepwell (Thermo Scientific) plate, where each compound at 2 mM concentration was added to 600 μL of whole blood (30% hct) and incubated at 37° C. for 24 hr with shaking (at 140 rpm). At 0.5 hr, 1 hr, 2 hr, 4 hr, 6 hr, 8 hr and 24 hr time intervals, 75 μL aliquot of blood was removed from each well using a multichannel pipette and added to respective tubes containing 75 μL of Na cyanoborohydride and borohydride mix (1:1 v/v 50 mM stock) to terminate the Schiff-base reaction, fix the Schiff-base adducts and reduce the reduce free reactive aldehyde (Davies et al., Food Chem. Toxicol. 2009, 47, 1950). We have previously optimized these conditions. After mixing, the tubes were stored immediately at −80° C. until ready for analysis to determine Hb adduct formation using cation-exchange HPLC (Hitachi D-7000 Series, Hitachi Instruments, Inc., San Jose, Calif.).

[3] = both in-vitro and in-vivo; cited from earlier work
sickle cell disease = settings: phase I/II human clinical studies; cited from earlier work
Hb = Hb (Homo sapiens, UniProt P69905); assay: Incubation of Hb with VZHE004 for three days, UPLC-MS analysis; assay type: in vitro ADME; settings: incubated with Hb for three days
Sequence of Hb (P69905 2-142 limits assumed): as the sequence (P69905 2-142 limits assumed) above
Sequence of Hb (P68871 2-147 partner limits assumed): as the sequence (P68871 2-147 partner limits assumed) above
Text: The overall tetrameric structure is indistinguishable (rmsd ˜0.4 Å) from 1BBB or the R2 structure in complex with 5-HMF (PDB code 1QXE). Like 5-HMF we also observed a pair of VZHE004 molecules covalently bound to the N-terminal αVal1 amines (Schiff-base interaction) in a symmetry-related fashion at the α-cleft (FIG. 7). The electron density of VZHE004 was relatively weak especially at the methyl acetate position. As such, the compound was refined as 5-HMF at the α1Val1 site, while the full VZHE004 was modelled at the α2Val1 binding site but with the methyl acetate refined in two alternate conformations (FIG. 7a). However, to make sure that the disorder is not due to partial hydrolytic cleavage of the ester, Hb and VZHE004 were incubated for three days.

[4] = Homo sapiens, Erythrocyte, 2 mM test compound, SS cells 20% hematocrit, hypoxia 4% oxygen/96% nitrogen, mean ± SD, read-out: Inhibition of Sickling (%)
[5] = Homo sapiens, Erythrocyte, 5 mM, read-out: RBC sickling inhibition
[6] = Homo sapiens, Erythrocyte, 2 mM, read-out: RBC sickling inhibition
[7] = 2 mM test compound, SS cells 20% hematocrit, hypoxia 4% oxygen/96% nitrogen, mean ± SD

Row | Structure (SMILES) | Modified Hb (%) (sickle Hb (Hb S)) | AP50 (%) [1] [%] | inhibition at 2000 µM [2, 4] [%] | inhibition at 5000 µM [2, 5] [%] | antisickling effect ([2]; over 1, 2 and 5 mM) | inhibition at 2000 µM [2, 6] [%] | P50 shift relative to 5-HMF [1] | further results
1 | O=Cc1ccc(COC(=O)c2ccccc2)o1 [VZHE007, (5-Formylfuran-2-yl)methyl Benzoate] | 44.5 ± 6.0 | 38.9 ± 11.9 | 10 ± 5.9 | ~83 | poor antisickling effects |  |  | 
2 | CC(C)(C)OC(=O)OCc1ccc(C=O)o1 [VZHE006, tert-Butyl ((5-formylfuran-2-yl)methyl) carbonate] | 50.0 ± 3.0 | 44.8 ± 12.9 | 71.6 ± 0.1 | > 95 |  | 35 to 95 |  | 
3 | O=Cc1ccc(COc2ccccc2)o1 [Compound 5-PMFC, 5-(phenoxymethyl)-2-furan carbaldehyde] | 60.53 ± 5.3 | 45.4 ± 14.6 | 94.7 ± 0.1 |  |  |  | better P50 sift than 5-HMF | Hb modification relative to 5-HMF (sickle Hb (Hb S)): superior Hb modification; RBC sickling inhibition ([2]; 2 mM): ~95%; antisickling effect ([2]; 2 mM): attained maximum effect; inhibition at 1000 µM ([2]; Homo sapiens, Erythrocyte, 1 mM, read-out: RBC sickling inhibition): ~17%; metabolic profile / decline of Hb adduct in whole blood (Hb A): exhibit some resistance to metabolism
4 | CCOCc1ccc(C=O)o1 [VZHE011, 5-(Ethoxymethyl)-2-furan Carboxadehyde] | 40.4 ± 3.9 | 39.8 ± 0.8 | 58.8 ± 7 |  |  | 35 to 95 |  | antisickling effect ([2]; 2 mM): superior
5 | CC(C)OCc1ccc(C=O)o1 [VZHE016, 5-(isopropoxymethyl)-2-furan Carboxadehyde] | 36.4 ± 9.7 | 38.4 ± 10.4 |  |  |  |  |  | RBC sickling inhibition ([2]; 2 mM): ~16%; Inhibition of Sickling (%) [2, 7]: 22.5 ± 8.8%
6 | O=Cc1ccc(CO)o1 [Compound 5-HMF, 5-hydroxymethyl-2-furfural, reference compound] | 32.8 ± 1.6 | 33.4 ± 0.9 | 25.7 ± 4.4 |  |  | 26 |  | RBC sickling inhibition ([2]; 2 mM): ~23% and ~26%; half-life in plasma [3]: 1 to 1.5 h; effective dose (sickle cell disease): 2-4 gm
7 | CC(=O)OCc1ccc(C=O)o1 [VZHE004, (5-formylfuran-2-yl)methyl acetate] | 43.5 ± 8.4 | 44.6 ± 11.9 | 26.3 ± 4.4 | 60 |  |  |  | RBC sickling inhibition ([2]; 5 mM): ~60%; stability of the ester against hydrolytic cleavage (UPLC-MS) (Hb): intact
8 | COP(=O)(OC)OCc1ccc(C=O)o1 [VZHE014, (5-Formylfuran-2-yl)methyl Dimethyl Phosphate] | 19.7 ± 6.3 | 35.7 ± 8.1 |  |  | poor antisickling effects |  |  | Inhibition of Sickling (%) [2, 7]: 8.4 ± 5.9%; RBC sickling inhibition ([2]; 5 mM): 43% and ~40%
9 | O=Cc1ccc(COc2ccc(Cl)cc2)o1 [Compound 5-CMFC, 5-((4-chlorophenoxy)methyl)-2-furan carbaldehyde] | 26.7 ± 6.5 | 13.2 ± 5.2 | 2 ± 1.9 |  | barely showed any antisickling activity; also recorded: poor antisickling effects | < 10 | significantly less P50 shift than 5-HMF; also recorded: lower degrees of shift than 5-HMF | antisickling effect ([2]; 5 mM): barely showed any antisickling effect
10 | CCCOCc1ccc(C=O)o1 [VZHE015, 5-(Propoxymethyl)-2-furan Carboxadehyde] | 39.7 ± 8.2 | 44.0 ± 9.7 | 62.9 ± 6.2 |  |  | 35 to 95 |  | antisickling effect ([2]; 2 mM): superior
11 | CC(C)(C)OCc1ccc(C=O)o1 [VZHE013, 5-(tert-Butoxymethyl)furan-2-carbaldehyde] | 15.7 ± 4.3 | 24.0 ± 5.6 | 7.4 ± 6.9 |  | very little antisickling activity; also recorded: barely showed any antisickling activity; also recorded: poor antisickling effects |  | weaker | Hb modification relative to 5-HMF (sickle Hb (Hb S)): weaker adduct formation; % P50 shift ([1]; 1 mM): 16%; % P50 shift ([1]; 2 mM): 24%; % P50 shift ([1]; 5 mM): 46%; sickling inhibition (antisickling effect) ([2]; at all three concentrations (1, 2 and 5 mM)): less than 5%
12 | O=Cc1ccc(COc2ccccc2[N+](=O)[O-])o1 [Compound 5-NMFC, 5-((2-nitrophenoxy)methyl)-2-furan carbaldehyde] | 40.5 ± 17.6 | 13.4 ± 5.7 | 10.3 ± 0.5 | < 10 | barely showed any antisickling activity; also recorded: poor antisickling effects | < 10 | significantly less P50 shift than 5-HMF; also recorded: lower degrees of shift than 5-HMF | Hb modification relative to 5-HMF (sickle Hb (Hb S)): superior Hb modification; antisickling effect ([2]; 5 mM): barely showed any antisickling effect; metabolic profile / decline of Hb adduct in whole blood (Hb A): exhibit some resistance to metabolism
